One assay concerns Salmonella enteritidis. Description: Antibacterial activity against Salmonella enteritidis after 24 hrs by serial broth dilution test. In kind it is functional, Salmonella enterica subsp. enterica serovar Enteritidis. The settings on record: Salmonella enterica.
In a further assay the test system is Candida albicans. Nature of the assay: Antifungal activity against Candida albicans IFO 1061 after 48 hrs by serial broth dilution test. The format is functional. The settings on record: IFO 1061, 48 h.
In another assay the test system is Staphylococcus aureus. Nature of the assay: Antibacterial activity against Staphylococcus aureus after 24 hrs by serial broth dilution test. The format is functional.
A further assay has as its system Escherichia coli. Nature of the assay: Antibacterial activity against Escherichia coli IFO 026 after 24 hrs by serial broth dilution test. The format is functional. The settings on record: IFO 026, 24 h.
Another assay has as its system Bacillus subtilis. Description: Antibacterial activity against Bacillus subtilis after 24 hrs by serial broth dilution test. In kind it is functional.

Some results are limits rather than exact numbers.

As for `COc1cc(Br)c2cc3[n+](cc2c1OC)CCc1cc2c(cc1-3)OCO2.[Cl-]`, the minimum inhibitory concentration (MIC) was 125 mg/L with Salmonella enteritidis; 500 mg/L with Candida albicans; 125 mg/L in the assay with Staphylococcus aureus; greater than 500 mg/L in the assay with Escherichia coli; 125 mg/L in the assay with Bacillus subtilis.

In the case of `CCc1c2c(OC)c(OC)ccc2cc2[n+]1CCc1cc3c(cc1-2)OCO3.[Cl-]`, the MIC in the assay on Salmonella enteritidis is 62.5 mg/L; against Candida albicans it was 125 mg/L; against Staphylococcus aureus, 62.5 mg/L; with Escherichia coli, greater than 500 mg/L; against Bacillus subtilis it was 125 mg/L.

Consider `COc1cc(Br)c2cc3[n+](c(-c4ccccc4)c2c1OC)CCc1cc2c(cc1-3)OCO2.[Cl-]`, for which the MIC was found to be 31.2 mg/L in the assay on Salmonella enteritidis; 250 mg/L with Candida albicans; 31.2 mg/L in the assay on Staphylococcus aureus; 500 mg/L with Escherichia coli; 31.2 mg/L in the assay with Bacillus subtilis.

Consider `CCCc1c2c(OC)c(OC)cc(Br)c2cc2[n+]1CCc1cc3c(cc1-2)OCO3.[Cl-]`, for which the MIC was 15.6 mg/L in the assay with Salmonella enteritidis; 125 mg/L in the assay with Candida albicans; 15.6 mg/L against Staphylococcus aureus; 500 mg/L with Escherichia coli; 15.6 mg/L against Bacillus subtilis.

In the case of `CCCCc1c2c(OC)c(OC)cc(Br)c2cc2[n+]1CCc1cc3c(cc1-2)OCO3.[Cl-]`, the minimal inhibitory concentration (MIC) was found to be 15.6 mg/L in the assay with Salmonella enteritidis; 62.5 mg/L in the assay with Candida albicans; 7.8 mg/L in the assay on Staphylococcus aureus; 250 mg/L with Escherichia coli; 7.8 mg/L against Bacillus subtilis.

For the compound `COc1ccc2cc3[n+](c(-c4ccccc4)c2c1OC)CCc1cc2c(cc1-3)OCO2.[Cl-]`, the MIC with Salmonella enteritidis is 125 mg/L; against Candida albicans it was 250 mg/L; in the assay with Staphylococcus aureus it was 62.5 mg/L; with Escherichia coli, greater than 500 mg/L; against Bacillus subtilis, 62.5 mg/L.

In the case of `COc1ccc2cc3[n+](c(C)c2c1OC)CCc1cc2c(cc1-3)OCO2.[Cl-]`, the MIC was 125 mg/L in the assay on Salmonella enteritidis; 250 mg/L with Candida albicans; 125 mg/L in the assay with Staphylococcus aureus; greater than 500 mg/L in the assay on Escherichia coli; 250 mg/L against Bacillus subtilis.

In the case of `CCc1c2c(OC)c(OC)cc(Br)c2cc2[n+]1CCc1cc3c(cc1-2)OCO3.[Cl-]`, the MIC with Salmonella enteritidis worked out at 31.2 mg/L; in the assay with Candida albicans, 250 mg/L; with Staphylococcus aureus, 31.2 mg/L; against Escherichia coli, 500 mg/L; in the assay with Bacillus subtilis it was 31.2 mg/L.

Consider `CCCc1c2c(OC)c(OC)ccc2cc2[n+]1CCc1cc3c(cc1-2)OCO3.[Cl-]`, for which the MIC is 31.2 mg/L against Salmonella enteritidis; 250 mg/L with Candida albicans; 31.2 mg/L in the assay with Staphylococcus aureus; 500 mg/L in the assay on Escherichia coli; 62.5 mg/L in the assay with Bacillus subtilis.

Regarding `NC[C@H]1O[C@H](O[C@H]2[C@H](O)[C@@H](O[C@H]3O[C@H](CO)[C@@H](O)[C@H](N)[C@H]3O)[C@H](N)C[C@@H]2N)[C@H](O)[C@@H](O)[C@@H]1O.O=S(=O)(O)O` [KANAMYCIN SULFATE], the minimum inhibitory concentration (MIC) was 62.5 mg/L with Salmonella enteritidis; greater than 2000 mg/L in the assay on Candida albicans; 31.2 mg/L in the assay on Staphylococcus aureus; 31.2 mg/L against Escherichia coli; 3.9 mg/L in the assay with Bacillus subtilis.

Regarding `CCCCc1c2c(OC)c(OC)ccc2cc2[n+]1CCc1cc3c(cc1-2)OCO3.[Cl-]`, the MIC stood at 31.2 mg/L in the assay on Salmonella enteritidis; 250 mg/L against Candida albicans; 15.6 mg/L against Staphylococcus aureus; 500 mg/L in the assay on Escherichia coli; 31.2 mg/L in the assay on Bacillus subtilis.

For the compound `CCCCCCc1c2c(OC)c(OC)cc(Br)c2cc2[n+]1CCc1cc3c(cc1-2)OCO3.[Cl-]`, the minimal inhibitory concentration (MIC) was determined as 3.9 mg/L in the assay on Salmonella enteritidis; 15.6 mg/L against Candida albicans; 3.9 mg/L against Staphylococcus aureus; 125 mg/L against Escherichia coli; 3.9 mg/L against Bacillus subtilis.

Turning to `COc1ccc2cc3[n+](cc2c1OC)CCc1cc2c(cc1-3)OCO2.[Cl-]` [BERBERINE CHLORIDE], the MIC with Salmonella enteritidis is 500 mg/L; in the assay with Candida albicans, 500 mg/L; against Staphylococcus aureus, 250 mg/L; against Escherichia coli, greater than 2000 mg/L; in the assay on Bacillus subtilis, 1000 mg/L.
